Like-named read-outs stand apart in the source and are kept apart here.
Key:
[1] = test system: anti-digoxin single chain Fv scFv(Dig) derived from anti-digoxin 26-10 murine monoclonal antibody, wild type (WT), SEQ ID NO:132; assay type: binding; conditions: for kon: hapten-BSA conjugate immobilized on CM5 chip
Method: (§1) Single chain Fv mutants were produced and purified according to Burks (Burks and Iverson, 1995). The scFv genes from second round overlap extension PCR were ligated into pET25b plasmid and transformed into E. Coli BL21 (DE3) strain. Inclusion bodies that consist of scFvs were isolated from cell lysates and dissolved in 8 M urea. Soluble scFvs were purified by a metal chelating column (IMAC) and refolded by dialyzing against Tris buffer (50 mM Tris. HCl, pH 7.4, 500 mM KCl, 10% glycerol). Protein concentrations were determined by OD280 (Σ=44850) (Pace et al., 1995; Nieba et al., 1989). For the kinetics measurement, antibodies were further purified by a size exclusion gel filtration column Sepharose-75 (Pharmacia Biosensor AB, Sweden) to remove any dimeric or polymeric proteins.
(§2) The digoxin-BSA, digitoxin-BSA, digoxigenin-BSA and ouabain-BSA conjugates were immobilized on the surface of a sensor chip CM5 (approximately 400 RU) following the standard protocol from Pharmacia Biosensor. All kinetics experiments were performed in buffer containing 150 mM NaCl, 10 mM HEPES, 3.4 mM EDTA, and 0.005% P20, pH 7.4 at 25° C. with a flowrate of 60 μl/min (Myszka et al., 1997; Zeder-Lutz et al., 1997; Oddie et al., 1997). ScFv proteins over the concentration range of 25 nM to 400 nM were added to the chip for the association rate measurements. To prevent the rebinding of antibodies on the chip surface, soluble haptens (up to 1 mM) were added into elution buffer for the dissociation rate measurements (Schier et al., 1996). The antibody bound chip was regenerated by 50% ethylene glycol, pH 10. The values of association and dissociation rate of antibodies were calculated using BIAevaluation software from Pharmacia Biosensor. kon was determined from a plot of (ln(dR/dt))/t versus concentration (Karlson et al., 1991). koff was determined from a plot of ln(Ro/R) versus time.
(§3) In additional studies, values for the association and dissociation rate constants (kon and koff, respectively) were measured using a BIAcore 1000 for the wild-type and 14 selected mutant scFv antibodies. […] The selected scFv antibodies were expressed and purified following the procedure described by Burks and Iverson (1995). In each case, care was taken to insure that the kinetic values measured on the BlAcore are free of artifacts due to rebinding or avidity effects arising from multimeric scFvs.

[2] = target: anti-digoxin 26-10 murine monoclonal antibody; conditions: literature (Schildbach et al., 1993); cited from earlier work
[3] = target: anti-digoxin 26-10 scFv(Dig) variant LC96F (L:Pro-96→Phe); assay type: binding, murine
Method: as §1, §2, §3

[4] = test system: anti-digoxin 26-10 scFv(Dig) variant LC94F (light chain residue 94→Phe); assay type: binding, murine; conditions: for kon: hapten-BSA conjugate immobilized on CM5 chip
Method: as §1, §2, §3

[5] = test system: anti-digoxin 26-10 scFv(Dig) variant LC94Y (L:Val-94→Tyr); assay type: binding, murine; conditions: for kon: hapten-BSA conjugate immobilized on CM5 chip
Method: as §1, §2, §3

[6] = test system: anti-digoxin 26-10 scFv(Dig) variant HC100H (H:Trp-100→His); assay type: binding, murine; conditions: for kon: hapten-BSA conjugate immobilized on CM5 chip
Method: as §1, §2, §3

[7] = test system: anti-digoxin 26-10 scFv(Dig) variant HC100R (H:Trp-100→Arg); assay type: binding, murine; conditions: for kon: hapten-BSA conjugate immobilized on CM5 chip
Method: as §1, §2, §3

[8] = test system: anti-digoxin 26-10 scFv(Dig) variant HC100K (H:Trp-100→Lys); assay type: binding, murine; conditions: for kon: hapten-BSA conjugate immobilized on CM5 chip
Method: as §1, §2, §3

[9] = test system: anti-digoxin 26-10 scFv(Dig) variant HC50F (H:Tyr50→Phe); assay type: binding, murine; conditions: for kon: hapten-BSA conjugate immobilized on CM5 chip
Method: as §1, §2, §3

[10] = test system: anti-digoxin 26-10 scFv(Dig) variant HC9ST (heavy chain mutant); assay type: binding, murine; conditions: for kon: hapten-BSA conjugate immobilized on CM5 chip
Method: as §1, §2, §3

[11] = SPR, hapten-BSA conjugate on chip, soluble hapten in elution buffer, pH 7.4, 25° C.
[12] = SPR, hapten-BSA conjugate on chip, pH 7.4, 25° C.

Structure (SMILES) | kon ([1]; SPR, pH 7.4, 25° C.) [M⁻¹ s⁻¹] | koff [1, 11] | Ka [2] | Ka [3, 12] [M⁻¹] | koff [3, 11] | kon ([4]; SPR, pH 7.4, 25° C.) [M⁻¹ s⁻¹] | koff [4, 11] | kon ([5]; SPR, pH 7.4, 25° C.) [M⁻¹ s⁻¹] | koff [5, 11] | Ka [6, 12] [M⁻¹] | koff [6, 11] | kon ([7]; SPR, pH 7.4, 25° C.) [M⁻¹ s⁻¹] | koff [7, 11] | koff [8, 11] | kon ([9]; SPR, pH 7.4, 25° C.) [M⁻¹ s⁻¹] | koff [9, 11] | kon ([10]; SPR, pH 7.4, 25° C.) [M⁻¹ s⁻¹] | Ka [10, 12] [M⁻¹] | koff [10, 11] | kon ([6]; SPR, pH 7.4, 25° C.) [M⁻¹ s⁻¹] | other results
C[C@H]1O[C@@H](O[C@H]2[C@@H](O)C[C@H](O[C@H]3[C@@H](O)C[C@H](O[C@H]4CC[C@@]5(C)[C@H](CC[C@@H]6[C@@H]5CC[C@]5(C)[C@@H](C7=CC(=O)OC7)CC[C@]65O)C4)O[C@@H]3C)O[C@@H]2C)C[C@H](O)[C@@H]1O [Digitoxin, digitoxin] | 1e+06 | 1.3 × 10^-3 | approximately 9×10^9 M^-1 | 8.4e+07 | 0.014 | 1.3e+06 | 1.3 × 10^-3 | 1.15e+06 | 2.7 × 10^-3 | 0 | 9.7 × 10^-3 | 930000 | 8.2 × 10^-3 | 0.09 | 960000 | 1.7 × 10^-3 | 1e+06 | 9e+06 | 0.11 | – | Ka [8, 12]: 0 M⁻¹
C[C@]12CC[C@H](O)C[C@H]1CC[C@@H]1[C@@H]2C[C@@H](O)[C@]2(C)[C@@H](C3=CC(=O)OC3)CC[C@]12O [digoxigenin] | – | – | approximately 9×10^9 M^-1 | – | – | – | – | – | – | – | – | – | – | – | – | – | – | – | – | – | –
C[C@@H]1O[C@@H](O[C@H]2C[C@@H](O)[C@]3(CO)[C@H]4[C@H](O)C[C@]5(C)[C@@H](C6=CC(=O)OC6)CC[C@]5(O)[C@@H]4CC[C@]3(O)C2)[C@H](O)[C@H](O)[C@H]1O [Ouabain, ouabain] | 1e+06 | 1.5 × 10^-2 | – | – | 0.3 | 1e+06 | 1.0 × 10^-2 | 1e+06 | 1.7 × 10^-2 | 1.1e+07 | 0.09 | 1e+06 | 0.12 | 0.60 | 1e+06 | 0.013 | 100000 | 6.7e+06 | 0.12 | 1e+06 | fold lower affinity than for digoxin, digitoxin and digoxigenin [2]: 42 fold; Ka [7, 12]: 8.3e+06 M⁻¹; Ka [9, 12]: 7.9e+07 M⁻¹
C[C@H]1O[C@@H](O[C@H]2[C@@H](O)C[C@H](O[C@H]3[C@@H](O)C[C@H](O[C@H]4CC[C@@]5(C)[C@H](CC[C@@H]6[C@@H]5C[C@@H](O)[C@]5(C)[C@@H](C7=CC(=O)OC7)CC[C@]65O)C4)O[C@@H]3C)O[C@@H]2C)C[C@H](O)[C@@H]1O [Digoxin, digoxin] | 1.2e+08 | – | approximately 9×10^9 M^-1 | 500000 | – | 1.2e+06 | – | 1.2e+06 | – | – | – | 1.3e+06 | – | – | 1.5e+06 | – | 1.4e+06 | – | – | 1e+06 | koff ([1]; pH 7.4): 7.0 × 10^-4; kon ([3]; SPR, hapten-BSA conjugate immobilized on CM5 chip, pH 7.4, 25° C.): 1e+08 M⁻¹ s⁻¹; koff ([3]; pH 7.4): 2; koff ([4]; pH 7.4): 1.9 × 10^-3; koff ([5]; pH 7.4): 5.2 × 10^-3; koff ([6]; pH 7.4): 2.0 × 10^-3; koff ([7]; pH 7.4): 5.0 × 10^-3; kon ([8]; SPR, pH 7.4, 25° C.): 940000 M⁻¹ s⁻¹; koff ([8]; pH 7.4): 8.0 × 10^-2; koff ([9]; pH 7.4): 5.8 × 10^-4; koff ([10]; pH 7.4): 5.4 × 10^-3
C[C@]12CC[C@H](O)C[C@H]1CC[C@@H]1[C@@H]2CC[C@]2(C)[C@@H](C3=CC(=O)OC3)CC[C@]12O [Digitoxigenin] | 1e+06 | 2.3 × 10^-2 | – | – | 0.169 | 1e+06 | 8.9 × 10^-2 | 1.1e+06 | 1.8 × 10^-1 | 1e+08 | 9.7 × 10^-2 | – | 1.7 × 10^-1 | 1.48 | 1e+06 | 2.2 × 10^-2 | – | 7e+08 | 1.00 | 1e+06 | Ka [7, 12]: 4.2e+07 M⁻¹; kon ([8]; SPR, pH 7.4, 25° C.): 1e+06 M⁻¹ s⁻¹; Ka [9, 12]: 4.5e+08 M⁻¹
